Entries after “also recorded” stand apart in the source; their conditions may differ.
Test system: Chinese hamster V79-379 cells
Experiment: Clonogenic cell survival / photocytotoxicity in V79 cells (Table 1, FIG. 1, FIG. 2)
Assay type: cell-based
Details: for CF10 (AlPcCl)/CF10 (Pc) / F10 (AlPcCl)/F10 (Pc): 18 h; for photosensitizing efficiency / photocytotoxicity (in words): V79 cells, red light
Method in brief: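 V79-379 Chinese hamster lung fibroblasts were loaded with phthalocyanine (0.5-1.0 μM final) for 18 hours, then irradiated in HBSS with >600 nm red light at approximately 0.074 kJ/m^2/s. Survival was scored by colony formation (≥50 cells, 7-10 days), giving F10 and the uptake-adjusted CF10 (intracellular concentration × fluence) relative to 1 μM AlPcCl.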

SMILES: CN(C)CCC[Si](C)(C)O[Si]1(O)n2c3c4ccccc4c2N=C2N=C(N=c4c5ccccc5c(n41)=NC1=NC(=N3)c3ccccc31)c1ccccc12 (stereo not drawn) [Compound IV, HOSiPcOsi(CH3)2)(CH2)3 N(CH3)2]
- CF10 (AlPcCl)/CF10 (Pc) (0.5 μM): 3.9
- F10 (AlPcCl)/F10 (Pc) (0.5 μM): 1.85
- CF10 (AlPcCl)/CF10 (Pc) (1.0 μM, CF10 = intracellular concentration x fluence reducing survival to 10%): 3.5
- F10 (AlPcCl)/F10 (Pc) (1.0 μM, F10 = fluence reducing survival to 10%): 4.25
- photosensitizing efficiency / photocytotoxicity (in words): almost twice as efficient as the standard AlPcCl; also recorded: most efficient photosensitizer
- photosensitizing efficiency / photocytotoxicity (in words) (listed as SiPc(OH)(OSi(CH3)2 (CH2)3 N(CH3)2)): most efficient photosensitizer, as judged by uptake, growth delay, and photocytotoxicity

Reference: patent US5484778A, “Phthalocyanine photosensitizers for photodynamic therapy and methods for their use” (priority 1993, dated 1996)
